These results are taken from PMC11215771 (Journal of Medicinal Chemistry, 2024).

In test [1] the target is T1, hBACE2 fused to EGFP in HEK293T cells (Homo sapiens, UniProt Q9Y5Z0).
T1 construct: expressed in transfected cells; host or cells: HEK293T
T1 sequence (Q9Y5Z0 63-518): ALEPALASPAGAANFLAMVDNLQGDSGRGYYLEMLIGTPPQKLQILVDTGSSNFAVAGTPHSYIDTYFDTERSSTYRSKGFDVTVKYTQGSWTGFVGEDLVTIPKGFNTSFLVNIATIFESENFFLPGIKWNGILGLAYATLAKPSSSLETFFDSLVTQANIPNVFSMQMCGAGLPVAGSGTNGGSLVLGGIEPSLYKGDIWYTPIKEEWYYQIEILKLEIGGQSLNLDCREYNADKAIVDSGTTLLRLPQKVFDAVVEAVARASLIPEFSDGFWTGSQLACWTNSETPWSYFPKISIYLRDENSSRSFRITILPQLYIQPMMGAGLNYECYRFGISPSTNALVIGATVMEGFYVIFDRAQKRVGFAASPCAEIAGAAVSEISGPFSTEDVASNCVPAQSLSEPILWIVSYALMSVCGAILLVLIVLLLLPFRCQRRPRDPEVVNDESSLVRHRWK
The experiment in a line: Staining of transfected HEK293T cells, confocal imaging: BACE2. The test is classed as cell-based. Here is the method:
(§1) Next, we explored the performance of the new Alexa-C3 compounds in living cells. Because of the rather hydrophilic properties, we exclusively targeted the cell membrane. To prevent intracellular accumulation, we first performed stainings at 4 °C arresting ATP-dependent endocytosis. […] All of the constructs were tagged at the C-terminus with either EGFP or mCherry to visualize subcellular expression. […] With these experiments, we want to exclude that a lack of staining is caused by an impaired accessibility of the protein by Alexa-C3 compounds. […] We then tested samples with BACE1 expression after fixation of the cells with paraformaldehyde (PFA).
(§2) (D) All conjugates were also probed on cells fixed with 4% paraformaldehyde (PFA) for 15 min prior to staining. […] Scale bars represent 5 μm (A–D) and 20 μm (E). […] Samples were excited at 488, 561, and 633 nm, respectively.
(§3) HEK293T cells (ATCC accession number CRL-11268) were maintained in Dulbecco's modified Eagle's medium (Sigma-Aldrich D6046) with 1g/L glucose, supplemented with 10% FCS (Merck) and 1% penicillin/streptomycin (PAA). CHO-K1 cells (ATCC #CCL-61) were maintained in modified phenol red free RPMI-1640 medium (Sigma-Aldrich, R7509), supplemented with 2 mM L-glutamine (Sigma-Aldrich, G7513), and 10% FCS (Merck). Cells were cultured at 37 °C in a 5% CO2 atmosphere. […]

Test [2] has as its target T2, hCathepsinD in HEK293T cells (Homo sapiens, UniProt P07339).
T2 construct: EGFP or mCherry (C); host or cells: HEK293T
The experiment in a line: Staining of transfected HEK293T cells, confocal imaging: Cathepsin D. The test is classed as cell-based. As to the method: as §1, §2, §3

T2 sequence (P07339 65-412): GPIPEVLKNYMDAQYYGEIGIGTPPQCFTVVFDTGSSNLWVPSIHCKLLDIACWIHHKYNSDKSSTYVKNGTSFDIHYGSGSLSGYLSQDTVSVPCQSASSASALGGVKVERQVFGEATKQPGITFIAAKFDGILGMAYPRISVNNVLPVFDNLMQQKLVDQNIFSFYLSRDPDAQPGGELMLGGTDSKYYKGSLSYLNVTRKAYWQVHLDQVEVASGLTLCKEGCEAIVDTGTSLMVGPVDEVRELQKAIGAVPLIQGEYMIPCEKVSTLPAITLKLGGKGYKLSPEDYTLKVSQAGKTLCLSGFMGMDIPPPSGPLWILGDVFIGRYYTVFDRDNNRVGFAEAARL

With `C[C@@H](NC(=O)c1cc(C(=O)N[C@@H](Cc2ccccc2)[C@H](O)CNC2CC2)cc(N(C)S(=O)(=O)CCCNC(=O)CCCCCC2(C)C(/C=C/C=C/C=C3/N(CCCS(=O)(=O)O)c4ccc(S(=O)(=O)O)cc4C3(C)C)=[N+](CCCS(=O)(=O)[O-])c3ccc(S(=O)(=O)O)cc32)c1)c1ccccc1` (some centres unmarked), the “staining of BACE2” value in test [1] is on record as “not labeled”. In test [2], the “staining of Cathepsin D” value is on record as “not labeled”.
